From article PMC5247677 (Scientific Reports, 2017)
Read-outs that look alike come from different tables or passages of the source.

Assays:
[1] = test system: acute heat responses in mice; format: in vivo, mouse (C57BL/6 J); details: n = 6
Description: Paw-withdrawal latency in mice pre-administered phlotoxin 1 (i.p. 50 μg/kg; Venomtech, Valbonne, France), thiorphan (i.p. 20 mg/kg), buprenorphine (i.p. 50 μg/kg), or combinations, was determined using the Hargreaves apparatus (Plantar Analgesia Meter, IITC, CA, USA), with three withdrawal responses measured per animal.

[2] = test system: carrageenan-induced thermal allodynia in mice; assay: Carrageenan-induced thermal allodynia (thermal probe test); format: in vivo, mouse (C57BL/6 J); details: P > 0.05
Description: (§1) For behavioural assessment we used adult male C57BL/6 J mice or Sprague Dawley rats aged 5–8 weeks. Animals were housed in groups of 2–4 per cage, under 12 h light-dark cycles with standard rodent chow and water ad libitum. All assessments were performed by a blinded investigator unaware of the treatment each animal received. Ethical approval for in vivo experiments in animals was obtained from the University of Queensland, University of Sydney or United Kingdom Home Office animal ethics committee. Experiments involving animals were conducted in accordance with the International Association for the Study of Pain Guidelines for the Use of Animals in Research and the Australian Code of Practice for the Care and Use of Animals for Scientific Purposes, 8th edition (2013).
(§2) Carrageenan (1% w/v) was administered by i.pl injection in mice as previously described. Behavioural assessment was performed 3 h post-injection. […] Mechanical thresholds were determined using electronic von Frey (MouseMet Electronic von Frey, TopCat Metrology, UK) as previously described. Thermal thresholds were determined using the thermal probe test (MouseMet Thermal, TopCat Metrology) as described.

[3] = test system: carrageenan-induced mechanical allodynia in mice; assay: Carrageenan-induced mechanical allodynia (electronic von Frey); format: in vivo, mouse (C57BL/6 J)
Description: as §1, §2

NaV1.7 [4] = details: 30 mg/kg; cited from earlier work
[5] = cited from earlier work
Source text: (§3) However, while NaV1.7 is expressed on axons, it is unlikely to have a major role in action potential propagation, given it has slow recovery from fast inactiv ...

[6] = test system: formalin-induced pain in mice; assay: Formalin-induced spontaneous pain behaviours; format: in vivo, mouse (C57BL/6 J)
Description: as §1
Formalin (1% v/v) was administered by i.pl injection in mice as previously described. […] Spontaneous pain behaviours were counted from video recordings. Phase I was defined as 0–10 min and Phase II defined as 10–55 min following formalin injection.

[7] = test system: noxious heat response in mice; assay: Hot plate test (50 °C), noxious heat; format: in vivo, mouse (C57BL/6 J); details: 30 mg/kg i.p., control 25.9 ± 1.8 s, P > 0.05, n = 6–16
rat NaV1.7 channel = details: cited from earlier work
NaV1.7 [8] = details: cited from earlier work
Source text: In general, spider venom-derived peptides bind to the voltage-sensing domains of NaV channels to modify gating associated with channel activation and inactivation.

NaV isoforms = details: up to 2 μM; cited from earlier work
[9] = test system: inflammatory pain in rodents; details: rodent model of inflammatory pain; cited from earlier work
Source text: as §3

[10] = test system: mice and human lacking functional NaV1.7; details: in vivo; cited from earlier work

Compound: buprenorphine
- time to withdrawal, acute heat ([1]; buprenorphine 50 μg/kg i.p., control 6.3 ± 0.5 s): 7.2 ± 0.5 s

Compound: NCC1(CC(=O)O)CCCCC1 [gabapentin]
- paw withdrawal temperature (PWT) ([2]; gabapentin 100 mg/kg i.p., control 44.5 ± 0.9 °C, n = 3–8): 45.4 ± 0.5 °C
- paw withdrawal force (PWF) ([3]; gabapentin 100 mg/kg i.p., control 1.1 ± 0.3 g, P > 0.05, n = 3–8): 1.1 ± 0.1 g

Compound: O=C(O)CNC(=O)C(CS)Cc1ccccc1 (centres unmarked) [thiorphan]
- time to withdrawal, acute heat ([1]; thiorphan 20 mg/kg i.p., control 5.7 ± 0.9 s): 5.0 ± 0.4 s

Compound: Cn1nccc1-c1ccccc1Oc1ccc(S(=O)(=O)Nc2nccs2)cc1C#N [PF-04856264]
- efficacy in the OD1 model (NaV1.7 [4]): efficacy in the OD1 model at a dose of 30 mg/kg was previously reported
- blood-brain barrier penetration ([5]; expectation): unlikely to cross the blood-brain barrier
- formalin Phase I and Phase II pain behaviours ([6]; 30 mg/kg i.p., formalin 1% i.pl., P > 0.05, two-way ANOVA, n = 4–15): neither Pn3a (3 mg/kg i.p.) (Fig. 7d) or PF-04856264 (30 mg/kg ip.) (Figure 7e) significantly reduced Phase I or Phase II pain behaviours
- time to withdrawal, hot plate [7]: 30.7 ± 3.8 s
- paw withdrawal temperature (PWT) ([2]; PF-04856264 30 mg/kg i.p., control 44.1 ± 0.5 °C, n = 4–12): 44.4 ± 1.2 °C
- potency at the rat NaV1.7 channel (rat NaV1.7 channel): low potency at the rat NaV1.7 channel
- paw withdrawal force (PWF) ([3]; PF-04856264 30 mg/kg i.p., control 1.2 ± 0.2 g, P > 0.05, n = 4–12): 1.5 ± 0.3 g
- state preference at NaV1.7 (NaV1.7 [8]): preferentially bind to the slow inactivated state

Compound: phlotoxin 1: previously characterized spider peptide NaV1.7 inhibitor
- time to withdrawal, acute heat ([1]; phlotoxin 1 50 μg/kg i.p., buprenorphine experiment, control 6.3 ± 0.5 s): 5.8 ± 0.7 s
- time to withdrawal, acute heat ([1]; phlotoxin 1 50 μg/kg i.p., thiorphan experiment, control 5.7 ± 0.9 s): 7.3 ± 0.9 s
- effect on other NaV isoforms (NaV isoforms): no effect on other NaV isoforms
- IC50 (NaV1.7 [8]): 0.26 µM

Compound: ProTx-II: NaV1.7 selective spider peptide from the venom of Thrixopelma pruriens
- analgesic activity [9]: lack analgesic activity
- plasma levels ([5]; rodent): plasma levels sufficient to inhibit NaV1.7 in vitro
- onset of effect at NaV1.7 (NaV1.7 [8]): slow onset of effect

Compound: COc1ccc2c3c1O[C@H]1C(=O)CC[C@@]4(O)[C@@H](C2)N(C)CC[C@]314 [oxycodone]
- pain behaviours, formalin Phase II ([6]; oxycodone 1 mg/kg i.p., control 227 ± 14, n = 7–11): 231 ± 22
- paw withdrawal force (PWF) ([3]; oxycodone 0.67 mg/kg i.p., control 1.2 ± 0.2 g, n = 4–12): 1.8 ± 0.2 g

Compound: Nc1[nH]ncc1-c1cc(Cl)ccc1Oc1cc(F)c(S(=O)(=O)Nc2cscn2)cc1Cl [PF-05089771]
- state preference at NaV1.7 (NaV1.7 [8]): preferentially bind to the slow inactivated state

Compound: C=CCN1CC[C@]23c4c5ccc(O)c4O[C@H]2C(=O)CC[C@@]3(O)[C@H]1C5 [naloxone]
- reversal of analgesia [10]: substantially reverses analgesia
